Biological target: T1, cellular PARG (Homo sapiens, UniProt Q86W56)
T1 construct: endogenous in cells; host or cells: HeLa
Test: Nuclear PAR accumulation assay (immunofluorescence high-content imaging, MMS-treated HeLa cells)
Assay type: cell-based
Conditions: 1 hour compound then MMS 50 μg/mL for an additional hour
In short: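 HeLa cells pretreated with compound for 1 h at 37° C, then given 50 μg/mL MMS for another hour. After methanol fixation, PAR was immunostained with DAPI nuclear counterstain; per-nucleus intensity and percent PAR-positive cells were imaged at 20× (≥1,000 cells/well). IC50 from four-parameter logistic fit.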

T1 sequence (Q86W56 whole entry): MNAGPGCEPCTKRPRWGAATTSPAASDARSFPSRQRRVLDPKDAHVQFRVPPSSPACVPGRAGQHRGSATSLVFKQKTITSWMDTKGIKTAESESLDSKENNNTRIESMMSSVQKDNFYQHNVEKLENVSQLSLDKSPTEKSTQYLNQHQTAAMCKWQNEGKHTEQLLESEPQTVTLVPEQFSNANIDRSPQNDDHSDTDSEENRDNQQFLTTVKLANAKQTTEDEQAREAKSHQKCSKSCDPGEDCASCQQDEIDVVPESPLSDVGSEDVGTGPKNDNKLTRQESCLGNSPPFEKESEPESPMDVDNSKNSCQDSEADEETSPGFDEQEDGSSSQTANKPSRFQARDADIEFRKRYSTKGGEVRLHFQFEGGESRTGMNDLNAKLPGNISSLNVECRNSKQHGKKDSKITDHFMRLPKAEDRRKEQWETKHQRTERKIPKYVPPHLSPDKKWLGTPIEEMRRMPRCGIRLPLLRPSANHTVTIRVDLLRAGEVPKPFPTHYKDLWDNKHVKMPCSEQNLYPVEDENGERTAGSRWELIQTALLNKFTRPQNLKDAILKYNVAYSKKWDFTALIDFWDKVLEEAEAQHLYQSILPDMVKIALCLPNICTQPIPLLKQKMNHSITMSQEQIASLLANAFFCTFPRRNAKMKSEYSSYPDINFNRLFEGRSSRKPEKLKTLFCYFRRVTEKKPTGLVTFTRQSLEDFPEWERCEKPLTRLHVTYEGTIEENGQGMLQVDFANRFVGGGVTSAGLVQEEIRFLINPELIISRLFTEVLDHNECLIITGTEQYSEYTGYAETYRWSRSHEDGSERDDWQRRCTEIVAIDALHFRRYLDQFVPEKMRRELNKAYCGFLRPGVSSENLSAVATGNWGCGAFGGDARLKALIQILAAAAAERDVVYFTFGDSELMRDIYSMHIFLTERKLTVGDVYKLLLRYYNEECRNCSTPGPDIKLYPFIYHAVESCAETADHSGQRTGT

Row | Compound | IC50 [nM]
1 | Cn1cc(CN2C(=O)c3cc(S(=O)(=O)NC4(C)CC4)cc(C4=CCOCC4)c3N3CC(C)(C)N=C23)cn1 [Example 12, 9-(3,6-dihydro-2H-pyran-4-yl)-2,2-dimethyl-4-((1-methyl-1H-pyrazol-4-yl)methyl)-N-(1-methylcyclopropyl)-5-oxo-1,2,4,5-tetrahydroimidazo[1,2-a]quinazoline-7-sulfonamide] | < 100
2 | Cn1cc(CN2C(=O)c3cc(S(=O)(=O)NC4(C)CC4)ccc3N3C2=N[C@H]2CCOC[C@H]23)cn1 [Example 157, (7aS,1laS)-6-((1-methyl-1H-pyrazol-4-yl)methyl)-N-(1-methylcyclopropyl)-5-oxo-6,7a,8,9,11,11a-hexahydro-5H-pyrano[4′,3′:4,5]imidazo[1,2-a]quinazoline-3-sulfonamide] | < 100
3 | [2H]C([2H])(c1cnn(C)c1)N1C(=O)c2cc(S(=O)(=O)NC3(C)CC3)c(NCc3ccc(OC)nc3)cc2N2C1=N[C@H]1CCC[C@H]12 [Example 286, (7aS,10aR)-2-(((6-methoxypyridin-3-yl)methyl)amino)-6-((1-methyl-1H-pyrazol-4-yl)methyl-d2)-N-(1-methylcyclopropyl)-5-oxo-6,7a,8,9,10,10a-hexahydro-5H-cyclopenta[4,5]imidazo[1,2-a]quinazoline-3-sulfonamide] | < 100
4 | C[C@@H]1CN=C2N(Cc3cn(C)nc3CC#N)C(=O)c3cc(S(=O)(=O)NC4(C)CC4)ccc3N21 [Example 243, (R)-4-((3-(cyanomethyl)-1-methyl-1H-pyrazol-4-yl)methyl)-1-methyl-N-(1-methylcyclopropyl)-5-oxo-1,2,4,5-tetrahydroimidazo[1,2-a]quinazoline-7-sulfonamide] | < 100
5 | [2H]C([2H])(c1cnn(C)c1)N1C(=O)c2cc(S(=O)(=O)NC3(C)CC3)c(N)cc2N2C1=N[C@H]1CCC[C@H]12 [Example 234, (7aS,10aR)-2-amino-6-((1-methyl-1H-pyrazol-4-yl)methyl-d2)-N-(1-methylcyclopropyl)-5-oxo-6,7a,8,9,10,10a-hexahydro-5H-cyclopenta[4,5]imidazo[1,2-a]quinazoline-3-sulfonamide] | < 100
6 | C[C@@H]1CON=C2N(Cc3cnn(C)c3)C(=O)c3cc(S(=O)(=O)NC4(C)CC4)ccc3N21 [Example 219, (R)-1-methyl-5-((1-methyl-1H-pyrazol-4-yl)methyl)-N-(1-methylcyclopropyl)-6-oxo-1,2,5,6-tetrahydro-[1,2,4]oxadiazino[4,3-a]quinazoline-8-sulfonamide] | < 100
7 | C#C[C@@H]1CN=C2N(Cc3cnn(C)c3)C(=O)c3cc(S(=O)(=O)NC4(C)CC4)cc(Br)c3N21 [Example 72, (R)-9-bromo-1-ethynyl-4-((1-methyl-1H-pyrazol-4-yl)methyl)-N-(1-methylcyclopropyl)-5-oxo-1,2,4,5-tetrahydroimidazo[1,2-a]quinazoline-7-sulfonamide] | < 100
8 | C[C@@H]1CN=C2N(Cc3cnn(C)c3)C(=O)c3cc(S(=O)(=O)NC4(C)CC4)cc(C4=CCNCC4)c3N21 [Example 80, (R)-1-methyl-4-((1-methyl-1H-pyrazol-4-yl)methyl)-N-(1-methylcyclopropyl)-5-oxo-9-(1,2,3,6-tetrahydropyridin-4-yl)-1,2,4,5-tetrahydroimidazo[1,2-a]quinazoline-7-sulfonamide] | 100 to 1000
9 | C[C@@H]1CN=C2N(Cc3cn(C)nc3C(F)(F)F)C(=O)c3cc(S(=O)(=O)NC4(C)CC4)cc(Br)c3N21 [Example 23, (R)-9-bromo-1-methyl-4-((1-methyl-3-(trifluoromethyl)-1H-pyrazol-4-yl)methyl)-N-(1-methylcyclopropyl)-5-oxo-1,2,4,5-tetrahydroimidazo[1,2-a]quinazoline-7-sulfonamide] | < 100
10 | CN1CC=C(c2cc(S(=O)(=O)NC3(C)CC3)cc3c2N2CC(C)(C)N=C2N(Cc2cnn(C)c2)C3=O)CC1 [Example 4, 2,2-dimethyl-9-(1-methyl-1,2,3,6-tetrahydropyridin-4-yl)-4-((1-methyl-1H-pyrazol-4-yl)methyl)-N-(1-methylcyclopropyl)-5-oxo-1,2,4,5-tetrahydroimidazo[1,2-a]quinazoline-7-sulfonamide] | < 100
11 | C[C@@H]1CN=C2N(Cc3cnn(C)c3)C(=O)c3cc(S(=O)(=O)NC4(C)CC4)cc(N4CCC(C(=O)N(C)C)CC4)c3N21 [Example 37, (R)-N,N-dimethyl-1-(1-methyl-4-((1-methyl-1H-pyrazol-4-yl)methyl)-7-(N-(1-methylcyclopropyl)sulfamoyl)-5-oxo-1,2,4,5-tetrahydroimidazo[1,2-a]quinazolin-9-yl)piperidine-4-carboxamide] | 100 to 1000

Continued, values first:

Row | IC50 [nM] | Compound
12 | < 100 | [2H]C([2H])([2H])N1C(=O)c2cc(S(=O)(=O)NC3(C)CC3)ccc2N2C1=NCC2C#Cc1cnc2cccnn12 (stereo not drawn) [Example 184, 1-(imidazo[1,2-b]pyridazin-3-ylethynyl)-4-(methyl-d3)-N-(1-methylcyclopropyl)-5-oxo-1,2,4,5-tetrahydroimidazo[1,2-a]quinazoline-7-sulfonamide]
13 | < 100 | [2H]C([2H])(c1cnn(C)c1)N1C(=O)c2cc(S(=O)(=O)NC3(C)CC3)ccc2N2C1=NC[C@H]2C#Cc1cccnc1N [Example 250, (R)-1-((2-aminopyridin-3-yl)ethynyl)-4-((1-methyl-1H-pyrazol-4-yl)methyl-d2)-N-(1-methylcyclopropyl)-5-oxo-1,2,4,5-tetrahydroimidazo[1,2-a]quinazoline-7-sulfonamide]
14 | < 100 | [2H]C([2H])(c1cnn(C)c1)N1C(=O)c2cc(S(=O)(=O)NC3(C)CC3)ccc2N2C1=NC[C@H]2C#Cc1cnc(C2CC2)nc1 [Example 261, (R)-1-((2-cyclopropylpyrimidin-5-yl)ethynyl)-4-((1-methyl-1H-pyrazol-4-yl)methyl-d2)-N-(1-methylcyclopropyl)-5-oxo-1,2,4,5-tetrahydroimidazo[1,2-a]quinazoline-7-sulfonamide]
15 | < 100 | Cn1cc(CN2C(=O)c3cc(S(=O)(=O)NC4(C)CC4)ccc3N3C2=NC[C@H]3C#Cc2ccncc2)cn1 [Example 116, (R)-4-((1-methyl-1H-pyrazol-4-yl)methyl)-N-(1-methylcyclopropyl)-5-oxo-1-(pyridin-4-ylethynyl)-1,2,4,5-tetrahydroimidazo[1,2-a]quinazoline-7-sulfonamide]
16 | < 100 | [2H]C([2H])(c1cnn(C)c1)N1C(=O)c2cc(S(=O)(=O)NC3(C)CC3)ccc2N2C1=NC[C@H]2C#CC1(N(C)C)CC1 [Example 112, (R)-1-((1-(dimethylamino)cyclopropyl)ethynyl)-4-((1-methyl-1H-pyrazol-4-yl)methyl-d2)-N-(1-methylcyclopropyl)-5-oxo-1,2,4,5-tetrahydroimidazo[1,2-a]quinazoline-7-sulfonamide]
17 | < 100 | CCN1C(=O)c2cc(S(=O)(=O)NC3(C)CC3)ccc2N2C1=NC[C@H]2C#Cc1cnn(C)n1 [Example 187, (R)-4-ethyl-I-((2-methyl-2H-1,2,3-triazol-4-yl)ethynyl)-N-(1-methylcyclopropyl)-5-oxo-1,2,4,5-tetrahydroimidazo[1,2-a]quinazoline-7-sulfonamide]
18 | < 100 | [2H]C([2H])(c1cnn(C)c1)N1C(=O)c2cc(S(=O)(=O)NC3(C)CC3)ccc2N2C1=NC[C@H]2C#Cc1cn(C)nc1C [Example 232, (R)-1-((1,3-dimethyl-1H-pyrazol-4-yl)ethynyl)-4-((1-methyl-1H-pyrazol-4-yl)methyl-d2)-N-(1-methylcyclopropyl)-5-oxo-1,2,4,5-tetrahydroimidazo[1,2-a]quinazoline-7-sulfonamide]

From patent US20260285875A1, “INHIBITORS OF PARG” (858 Therapeutics, Inc., priority 2023, published 2026)
